Measurements from US8691761B2, “Somatostatin receptor 2 antagonists” (priority 2006, dated 2014).
“And” between values parts separate entries of the source, which are not always exact repeats. Identical values can stand only once. “Also recorded” adds a separate entry of the source. Like-named read-outs stand apart in the source and are kept apart here. Bridge positions count the residues as written; N and C are the ends. Square brackets hold non-standard residues; d marks the D form. Peptide text beside a SMILES is read from it. * marks the point of attachment. ξ: configuration not given here. DOTA = O=C(O)CN1CCN(CC(=O)O)CCN(CC(=O)*)CCN(CC(=O)O)CC1; Phe(4-NO2) = N[C@@H](Cc1ccc([N+](=O)[O-])cc1)C(=O)O; dPhe(4-NHCONH2) = NC(=O)Nc1ccc(C[C@@H](N)C(=O)O)cc1; Phe(4-Cl) = N[C@@H](Cc1ccc(Cl)cc1)C(=O)O; ξDihydroorotoyl = O=C1CC(C(=O)*)NC(=O)N1; 2Nal = N[C@@H](Cc1ccc2ccccc2c1)C(=O)O; ξPhe(4-NH2) = Nc1ccc(CC(N)C(=O)O)cc1

Experiments:
[1] = target: sst2 (Homo sapiens, UniProt P30874); assay: Calcium release assay in HEK-sst2 cells (Fluo-4NW); type: cell-based; parameters: expressed in transfected cells; host or cells: HEK293 (HEK-sst2); conditions: n ≧ 2
Procedure: Calcium release assay. Intracellular calcium release was measured in HEK-sst2 using the Fluo-4NW Calcium Assay kit as described previously (Magrys, et al. “The role of anti-alpha-enolase autoantibodies in pathogenicity of autoimmune-mediated retinopathy.” J. Clin. Immunol. 2007, 27, 181-192; Michel et al. “The Nef protein of human immunodeficiency virus is a broad-spectrum modulator of chemokine receptor cell surface levels that acts independently of classical motifs for receptor endocytosis and Galphai signaling.” Mol. Biol. Cell. 2006, 17, 3578-3590). In brief, HEK-sst2 cells were seeded (25,000 cells per well) in poly-D-lysine (20 μg/mL) coated 96 well plates and cultured for 1 day at 37° C. and 5% CO2 in culture medium. At the day of the experiment, the cells were washed with assay buffer (1×HBSS, 20 mM HEPES) containing 2.5 mM probenecid, and then loaded with 100 μL/well Fluo-4NW dye in assay buffer containing 2.5 mM probenecid for 30 min at 37° C. and 5% CO2 and then for further 30 min at room temperature. To measure the intracellular calcium mobilization after stimulation with the SRIF analogues to be tested, the dye-loaded cells were transferred to a SpectraMax M2^e (Molecular Devices, Sunnyvale, Calif.). Intracellular calcium mobilization was recorded in a kinetic for 60 sec at room temperature monitoring fluorescence emission at 520 nm (with λex=485 nm) in the presence of the analogues at the concentrations indicated. Maximum fluorescence (Fmax) was measured after the addition of 25 μM ionomycin. Baseline (control) measurements were taken for dye-loaded, untreated cells. Data are shown as percentage of Fmax (% Fmax) as reported previously. (Magrys, et al. J. Clin. Immunol. 2007, 27, 181-192; Michel et al. Mol. Biol. Cell. 2006, 17, 3578-3590). All experiments were repeated at least three times in triplicate.

[2] = target: T1, human sst2A receptor (Homo sapiens, UniProt P30874); assay: Immunofluorescence-based sst2 internalization assay in HEK-sst2 cells; type: cell-based; conditions: n ≧ 2
T1 construct: expressed in transfected cells; host or cells: HEK293 (HEK-sst2)
Summary of the method: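 HEK-sst2 cells treated with vehicle, 100 nM [Tyr^3]-octreotide, octreotide plus 100-fold excess test analogue, or test analogue alone at 10 μM. Receptor internalization visualized by immunofluorescence microscopy with sst2-specific antibody R2-88.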

[3] = test system: HEK-sst2 tumors; assay: In vivo biodistribution of radiolabeled peptides in nude mice bearing HEK-sst2 tumors; conditions: mouse, in vivo
Procedure: (§1) The following protocol was used to determine biodistribution
(§2) Confirmation that the transfected tumors were indeed expressing solely sst2 was obtained in resected tumor samples tested in vitro with somatostatin receptor autoradiography using subtype selective ligands.
(§3) The biodistribution of was studied at 4 h or 24 h after injection. The organs of interest were collected, blotted dry, weighed, their radioactivity measured and the percentage of injected activity per gram (% IA/g) calculated.

[4] = test system: HEK-sst2 tumors; conditions: mouse, in vivo
Procedure: as §1, §2, §3

[5] = target: T2, hSSTR3 (Homo sapiens, UniProt P32745); assay: Receptor autoradiography, displacement of 125I-[Leu8,D-Trp22,Tyr25]-SRIF-28 from membrane pellet sections; type: binding
T2 construct: expressed in transfected cells; host or cells: CHO-K1 or CCL39 cells

[6] = target: T3, hSSTR5 (Homo sapiens, UniProt P35346); assay: as above; type: binding
T3 construct: expressed in transfected cells; host or cells: CHO-K1 or CCL39 cells

[7] = target: T4, hSSTR2 (Homo sapiens, UniProt P30874); assay: as above; type: binding
T4 construct: expressed in transfected cells; host or cells: CHO-K1 or CCL39 cells

[8] = target: T5, hSSTR1 (Homo sapiens, UniProt P30872); assay: as above; type: binding
T5 construct: expressed in transfected cells; host or cells: CHO-K1 or CCL39 cells

[9] = target: T6, hSSTR4 (Homo sapiens, UniProt P31391); assay: as above; type: binding
T6 construct: expressed in transfected cells; host or cells: CHO-K1 or CCL39 cells

[10] = Table 1, inhibition of radioligand binding to cloned human receptor, read-out: IC50 hSSTR3
[11] = Table 3, mean ± SEM when N ≧ 3, read-out: sst3 binding affinity (IC50)
[12] = Table 1, inhibition of radioligand binding to cloned human receptor, read-out: IC50 hSSTR5
[13] = Table 3, mean ± SEM when N ≧ 3, read-out: sst5 binding affinity (IC50)
[14] = Table 1, inhibition of radioligand binding to cloned human receptor, read-out: IC50 hSSTR2
[15] = Table 3, mean ± SEM when N ≧ 3, read-out: sst2 binding affinity (IC50)
[16] = Table 1, inhibition of radioligand binding to cloned human receptor, read-out: IC50 hSSTR1
[17] = Table 3, mean ± SEM when N ≧ 3, read-out: sst1 binding affinity (IC50)
[18] = Table 1, inhibition of radioligand binding to cloned human receptor, read-out: IC50 hSSTR4
[19] = Table 3, mean ± SEM when N ≧ 3, read-out: sst4 binding affinity (IC50)

T1 sequence (P30874 whole entry): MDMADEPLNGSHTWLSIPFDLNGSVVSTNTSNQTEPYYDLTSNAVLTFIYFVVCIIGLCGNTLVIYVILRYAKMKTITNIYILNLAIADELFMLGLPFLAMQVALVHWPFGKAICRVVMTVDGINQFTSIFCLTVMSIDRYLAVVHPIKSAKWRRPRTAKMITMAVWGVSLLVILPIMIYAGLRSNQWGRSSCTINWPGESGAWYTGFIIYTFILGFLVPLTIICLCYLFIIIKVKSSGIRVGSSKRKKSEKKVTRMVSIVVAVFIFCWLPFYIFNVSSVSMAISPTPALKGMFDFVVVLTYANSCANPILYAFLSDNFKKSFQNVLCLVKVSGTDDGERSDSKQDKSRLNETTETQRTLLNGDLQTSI
Sequence of sst2 (P30874 whole entry): as above
T4 sequence (P30874 whole entry): as above
T5 sequence (P30872 whole entry): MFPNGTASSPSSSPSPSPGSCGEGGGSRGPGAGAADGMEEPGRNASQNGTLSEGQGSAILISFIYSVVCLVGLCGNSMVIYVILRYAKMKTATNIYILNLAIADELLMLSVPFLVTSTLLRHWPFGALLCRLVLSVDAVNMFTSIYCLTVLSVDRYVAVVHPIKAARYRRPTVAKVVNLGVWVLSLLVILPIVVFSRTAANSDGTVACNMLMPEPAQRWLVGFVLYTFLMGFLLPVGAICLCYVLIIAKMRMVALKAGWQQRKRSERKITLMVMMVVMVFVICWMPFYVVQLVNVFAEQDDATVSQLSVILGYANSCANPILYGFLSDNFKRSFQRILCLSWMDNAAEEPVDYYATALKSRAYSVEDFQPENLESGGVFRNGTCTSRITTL
T2 sequence (P32745 whole entry): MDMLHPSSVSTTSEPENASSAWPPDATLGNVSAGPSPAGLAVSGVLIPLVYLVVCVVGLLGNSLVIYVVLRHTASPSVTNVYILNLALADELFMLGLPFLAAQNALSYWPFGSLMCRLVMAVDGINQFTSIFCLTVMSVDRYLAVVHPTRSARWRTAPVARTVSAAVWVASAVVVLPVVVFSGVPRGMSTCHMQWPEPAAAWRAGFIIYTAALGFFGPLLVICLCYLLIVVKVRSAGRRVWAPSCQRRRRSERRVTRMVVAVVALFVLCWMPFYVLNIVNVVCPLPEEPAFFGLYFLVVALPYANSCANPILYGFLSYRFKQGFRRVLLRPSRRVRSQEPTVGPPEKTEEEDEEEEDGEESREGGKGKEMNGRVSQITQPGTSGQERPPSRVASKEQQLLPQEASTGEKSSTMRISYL
T3 sequence (P35346 whole entry): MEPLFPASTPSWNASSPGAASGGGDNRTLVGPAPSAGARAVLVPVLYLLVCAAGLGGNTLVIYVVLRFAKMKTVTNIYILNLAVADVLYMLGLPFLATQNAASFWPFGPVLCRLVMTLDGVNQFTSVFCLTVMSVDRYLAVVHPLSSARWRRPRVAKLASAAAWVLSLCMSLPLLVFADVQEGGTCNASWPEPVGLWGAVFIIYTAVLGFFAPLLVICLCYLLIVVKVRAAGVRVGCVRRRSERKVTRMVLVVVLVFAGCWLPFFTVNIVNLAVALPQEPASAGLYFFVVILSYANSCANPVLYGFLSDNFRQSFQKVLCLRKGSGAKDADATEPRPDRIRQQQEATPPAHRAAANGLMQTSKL
T6 sequence (P31391 whole entry): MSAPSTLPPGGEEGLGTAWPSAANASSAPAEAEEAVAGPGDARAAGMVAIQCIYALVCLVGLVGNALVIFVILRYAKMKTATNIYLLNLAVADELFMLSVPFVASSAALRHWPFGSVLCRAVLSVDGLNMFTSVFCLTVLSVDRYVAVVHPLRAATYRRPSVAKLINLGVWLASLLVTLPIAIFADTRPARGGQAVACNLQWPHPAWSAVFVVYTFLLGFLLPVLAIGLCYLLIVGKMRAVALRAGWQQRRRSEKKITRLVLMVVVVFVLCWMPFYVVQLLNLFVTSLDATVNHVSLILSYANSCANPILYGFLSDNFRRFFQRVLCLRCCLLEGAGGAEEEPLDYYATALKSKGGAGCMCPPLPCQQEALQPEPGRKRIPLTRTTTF

Row | Calcium release tested in vitro in HEK-sst2 cells (function) [1] | sst2-internalization tested in vitro in HEK-sst2 cells (function) [2] | tumor to kidney ratio (in words) [3] | tumor to kidney ratio (in words) [4] | IC50 [5, 10] [µM] | IC50 [5, 11] [µM] | IC50 [6, 12] [µM] | IC50 [6, 13] [µM] | sst2 binding affinity relative to SRIF-28 [7] | IC50 [7, 14] [µM] | IC50 [7, 15] | IC50 [8, 16] [µM] | IC50 [8, 17] [µM] | IC50 [9, 18] [µM] | IC50 [9, 19] [µM] | SMILES
1 | Antagonist | Antagonist | excellent tumor to kidney ratio |  |  |  |  |  |  |  |  |  |  |  |  | C[C@@H](O)[C@@H]1NC(=O)[C@H](CCCCN)NC(=O)[C@@H](Cc2ccc(NC(N)=O)cc2)NC(=O)C(Cc2ccc(NC(=O)C3CC(=O)NC(=O)N3)cc2)NC(=O)[C@H](NC(=O)[C@H](Cc2ccc(Cl)cc2)NC(=O)CN2CCN(CC(=O)O)CCN(CC(=O)O)CCN(CC(=O)O)CC2)CSSC[C@@H](C(=O)N[C@@H](Cc2ccc3ccccc3c2)C(N)=O)NC1=O (stereo partly drawn) [Peptide No. 30, DOTA-Cpa-c[DCys-Aph(Hor)-DAph(Cbm)-Lys-Thr-Cys]-2Nal-NH2] ({DOTA}-[Phe(4-Cl)][dC][ξPhe(4-NH2)](ξDihydroorotoyl)[dPhe(4-NHCONH2)]KTC[2Nal]-NH2; disulfide 2-7)
2 | Antagonist | Antagonist | excellent tumor to kidney ratio |  | > 1 | > 1 | > 1 | > 1 |  | 0.0015 | 0.0013 µM | > 1 | > 1 | > 1 | > 1 | C[C@@H](O)[C@@H]1NC(=O)[C@H](CCCCN)NC(=O)[C@@H](Cc2ccc(NC(N)=O)cc2)NC(=O)[C@H](Cc2ccc(O)cc2)NC(=O)[C@H](NC(=O)[C@H](Cc2ccc([N+](=O)[O-])cc2)NC(=O)CN2CCN(CC(=O)O)CCN(CC(=O)O)CCN(CC(=O)O)CC2)CSSC[C@@H](C(=O)N[C@@H](Cc2ccc3ccccc3c2)C(N)=O)NC1=O [Peptide No. 5, DOTA-pNO2Phe-c[DCys-Tyr-DAph(Cbm)-Lys-Thr-Cys]-2Nal-NH2] ({DOTA}-[Phe(4-NO2)][dC]Y[dPhe(4-NHCONH2)]KTC[2Nal]-NH2; disulfide 2-7)

Row | SMILES | Calcium release tested in vitro in HEK-sst2 cells (function) [1] | sst2-internalization tested in vitro in HEK-sst2 cells (function) [2] | tumor to kidney ratio (in words) [3] | tumor to kidney ratio (in words) [4] | IC50 [5, 10] [µM] | IC50 [5, 11] [µM] | IC50 [6, 12] [µM] | IC50 [6, 13] [µM] | sst2 binding affinity relative to SRIF-28 [7] | IC50 [7, 14] [µM] | IC50 [7, 15] | IC50 [8, 16] [µM] | IC50 [8, 17] [µM] | IC50 [9, 18] [µM] | IC50 [9, 19] [µM]
3 | C[C@@H](O)[C@@H]1NC(=O)[C@H](CCCCN)NC(=O)[C@@H](Cc2ccc(NC(N)=O)cc2)NC(=O)[C@H](Cc2ccc(O)cc2)NC(=O)[C@H](NC(=O)[C@H](Cc2ccc([N+](=O)[O-])cc2)NC(=O)CN2CCN(CC(=O)O)CCN(CC(=O)O)CCN(CC(=O)O)CC2)CSSC[C@@H](C(=O)N[C@H](Cc2ccc(O)cc2)C(N)=O)NC1=O [Peptide No. 3, DOTA-pNO2Phe-c[DCys-Tyr-DAph(Cbm)-Lys-Thr-Cys]-DTyr-NH2] ({DOTA}-[Phe(4-NO2)][dC]Y[dPhe(4-NHCONH2)]KTC[dY]-NH2; disulfide 2-7) | Antagonist | antagonistic property; also recorded: Antagonist |  | excellent tumor to kidney ratio | > 1 | > 1 | > 1 | > 1 | three to four-fold greater | 0.00053 ± 6e-05 | 0.00075 µM and < 0.001 µM | > 1 | > 1 | > 1 | > 1
